The values that follow come from PubChem BioAssay AID2050 (NMMLSC, 2009).

The structures appear in SMILES notation. Active and inactive are the calls of the source.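 How the source made its calls: active means EC50 at or below 30 µM together with a response span of at least a set limit; inactive means the rest.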

For the assay, the target named is GTPase HRas (Homo sapiens) (UniProt P01112). In words: activated Ras mutant GTP-binding inhibitors, SAR follow-up, biochemical, pyrazoline analogs, multiplex bead flow cytometry (AID 2050). Conditions: GST-Ras beads, Bodipy-FL-GTP binding; for Ki: measured here: Ki calculated from EC50.
GTPase HRas (Homo sapiens), sequence (P01112 whole entry, looked up): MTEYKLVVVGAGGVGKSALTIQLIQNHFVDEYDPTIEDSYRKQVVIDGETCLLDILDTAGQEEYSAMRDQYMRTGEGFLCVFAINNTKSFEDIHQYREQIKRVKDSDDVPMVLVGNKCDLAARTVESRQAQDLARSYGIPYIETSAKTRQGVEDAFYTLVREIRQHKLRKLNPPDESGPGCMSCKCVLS

Broadly, the EC50 is the midpoint of the concentration-response curve. As to `COc1ccc(C2CC(c3ccccc3)=NN2c2ccc(Cl)c(C(=O)O)c2)cc1` (centres undefined), the EC50 is > 30 µM (inactive).

Consider `COc1ccc(C2CC(c3ccccc3)=NN2c2ccc(Cl)c(C(=O)O)c2)cc1OC` (centres undefined), for which the EC50 is > 30 µM (inactive). For `COc1ccccc1N1N=C(c2ccccc2)CC1c1ccccc1` (centres undefined), the EC50 was > 30 µM (inactive). Consider `COc1ccc(C2CC(c3ccc(C)cc3)=NN2c2ccc(S(N)(=O)=O)cc2)cc1` (centres undefined), for which the EC50 was > 30 µM (inactive). `COc1ccc(C2CC(c3ccc(C(F)(F)F)cc3)=NN2c2ccc(S(N)(=O)=O)cc2)cc1` (centres undefined): the EC50 was > 30 µM (inactive).

As for `CN(C)c1ccc(C2CC(c3ccc(F)cc3)=NN2c2ccccc2)cc1` (centres undefined), the EC50 was > 30 µM (inactive). On the same count and under the same terms, in the case of `O=C(O)c1ccc(N2N=C(c3ccccc3)CC2c2ccccc2)cc1` (centres undefined) it was > 30 µM (inactive); in that of `COc1ccc(C2CC(c3ccc(F)cc3)=NN2c2ccc(S(N)(=O)=O)cc2)cc1` (centres undefined), > 30 µM (inactive); in that of `COc1ccc(C2CC(c3ccc(N(C)C)cc3)=NN2c2ccc(S(N)(=O)=O)cc2)cc1` (centres undefined), > 30 µM (inactive). For the molecule `CN(C)c1ccc(C2CC(c3ccccc3)=NN2c2ccc([N+](=O)[O-])cc2)cc1` (centres undefined), the EC50 was > 30 µM (inactive). Same read-out and setting: in the case of `COc1ccc(C2CC(c3cccc(C(F)(F)F)c3)=NN2c2ccc(S(N)(=O)=O)cc2)cc1` (centres undefined) it was > 30 µM (inactive). The same measure, in the same setting: in the case of `COc1ccc(C2CC(c3cccc(N(C)C)c3)=NN2c2ccc(S(N)(=O)=O)cc2)cc1` (centres undefined) it was > 30 µM (inactive). Consider `COc1ccc(C2CC(c3cccc(Cl)c3)=NN2c2ccc(S(N)(=O)=O)cc2)cc1` (centres undefined), for which the EC50 was > 30 µM (inactive).

`Cc1cccc(N2N=C(c3ccccc3)CC2c2ccccc2)c1` (centres undefined): the EC50 is > 30 µM (inactive). As to `COc1ccc(C2CC(c3ccsc3)=NN2c2ccc(S(N)(=O)=O)cc2)cc1` (centres undefined), the EC50 was > 30 µM (inactive). Regarding `COc1ccc(C2CC(c3ccccc3OC)=NN2c2ccc(S(N)(=O)=O)cc2)cc1` (centres undefined), the EC50 was > 30 µM (inactive). Regarding `COc1ccc(C2CC(c3ccccc3)=NN2c2ccc(S(N)(=O)=O)cc2)cc1OC` (centres undefined), the EC50 was > 30 µM (inactive). Still for that read-out and setting: in the case of `O=S(=O)(O)c1ccc(N2N=C(c3ccccc3)CC2c2ccccc2)cc1` (centres undefined) it was > 30 µM (inactive). For the molecule `COc1ccc(C2CC(c3ccc(F)cc3)=NN2c2cc(Cl)ccc2Cl)cc1` (centres undefined), the EC50 is > 30 µM (inactive).

Take `NS(=O)(=O)c1ccc(N2N=C(c3ccccc3)CC2c2ccccc2Cl)cc1` (centres undefined): the EC50 was > 30 µM (inactive). In the case of `O=[N+]([O-])c1ccc(N2N=C(c3ccccc3)CC2c2ccccc2)cc1` (centres undefined), the EC50 is > 30 µM (inactive). Still for that read-out and setting: in the case of `COc1ccc(C2CC(c3ccc(Br)cc3)=NN2c2ccc(S(N)(=O)=O)cc2)cc1` (centres undefined) it was > 30 µM (inactive). Same read-out and setting: in the case of `Cc1ccccc1N1N=C(c2ccccc2)CC1c1cccc([N+](=O)[O-])c1` (centres undefined) it was > 30 µM (inactive); in that of `COc1ccc(C2CC(c3ccccc3)=NN2c2cccc(S(N)(=O)=O)c2)cc1` (centres undefined), > 30 µM (inactive). As for `CN(C)c1ccc(C2CC(c3ccccc3)=NN2c2ccccc2)cc1` (centres undefined), the EC50 was > 30 µM (inactive). The same measure, in the same setting: in the case of `COc1ccc(C2CC(c3cccc(C)c3)=NN2c2ccc(S(N)(=O)=O)cc2)cc1` (centres undefined) it was > 30 µM (inactive); in that of `COc1ccc(C2CC(c3ccccc3Cl)=NN2c2ccc(S(N)(=O)=O)cc2)cc1` (centres undefined), > 30 µM (inactive). For orientation: Ki means the equilibrium dissociation constant of an inhibitor or competing ligand from its target. In the case of `O=S(=O)(c1ccc(N2N=C(c3ccc(Br)cc3)CC2c2ccccc2)cc1)C(F)F` (centres undefined), the EC50 result was “inactive” and the Ki was 0.18 µM. For `COc1ccc(C2CC(c3ccccc3C)=NN2c2ccc(S(N)(=O)=O)cc2)cc1` (centres undefined), the EC50 is > 30 µM (inactive). With `COc1ccccc1C1CC(c2ccccc2)=NN1c1ccc(S(N)(=O)=O)cc1` (centres undefined), the EC50 is > 30 µM (inactive). For `COc1ccc(C2=NN(c3ccccc3)C(c3ccccc3C(F)(F)F)C2)cc1` (centres undefined), the EC50 entry is “inactive” and the Ki was 1.19 µM. In the case of `COc1ccc(C2=NN(c3ccc(Cl)cc3)C(c3ccccc3F)C2)cc1` (centres undefined), the EC50 was > 30 µM (inactive).
